Source: paper PMC7211198, “Phase 1b study of a small molecule antagonist of human chemokine (C-C motif) receptor 2 (PF-04136309) in combination with nab-paclitaxel/gemcitabine in first-line treatment of metastatic pancreatic ductal adenocarcinoma” (Investigational New Drugs, 2019)
Marks after values point to notes of the source that are not given here.

Assay: Safety and tolerability (TEAEs, SAEs, DLTs, RP2D) in phase Ib study
Type: in vivo, human
Excerpt: Safety assessments included collection of adverse events (AEs), serious AEs (SAEs), vital signs and physical examination, electrocardiogram (12-lead), laboratory assessments, including pregnancy test, and verification of concomitant treatments. A patient was considered as DLT-evaluable if the patient experienced a DLT or if otherwise, in the absence of a DLT, the patient received at least 85% of the planned doses of each study drug in the first 28-day cycle. DLTs were defined as any of the following events occurring in the first cycle of treatment (days 1 through 28) and attributed (i.e., judged to be at least possibly related) to the combination of PF-04136309 plus nab-paclitaxel/gemcitabine, where relationship with the combination could not be ruled out. DLTs were hematologic events of grade 4 neutropenia lasting >5 days; febrile neutropenia; grade ≥ 3 neutropenic infection; grade ≥ 3 thrombocytopenia with grade ≥ 2 bleeding; grade 4 thrombocytopenia; and nonhematologic events of grade 3 toxicities. Exceptions included nausea and vomiting responding to prophylaxis and/or treatment and lasting <7 days from each chemotherapy infusion period; diarrhea responding to treatment and lasting <7 days; grade 3 fatigue lasting <7 days; grade 3 QT interval corrected for heart rate prolongation (>500 msec) persisting after correction of any reversible causes; and/or grade 3 aspartate aminotransferase (AST) and/or alanine aminotransferase (ALT) increase lasting ≤7 days. All grade 4 toxicities and a delay of >2 weeks in receiving the next scheduled cycle due to persistent treatment-related toxicities were considered DLTs. AEs meeting DLT criteria in the dose-expansion phase included grade 3 events of diarrhea, hypokalemia, and dysesthesia and grade 4 hypoxia. […] AEs were graded according to the National Cancer Institute Common Terminology Criteria for Adverse Events, version 4.03.

[1] = 750 mg BID + nab-P/Gem, all-causality TEAE
[2] = 750 mg BID + nab-P/Gem, treatment-related SAE
[3] = 500-mg BID group (n = 17), n = 1, considered unrelated to study treatment
[4] = Total N = 21, treatment-related TEAE

O=C(NCC(=O)N1CC[C@H](N[C@H]2CC[C@@](O)(c3ccc(-c4ncccn4)cn3)CC2)C1)c1cccc(C(F)(F)F)c1 [PF-04136309]
Chills, Grade 5 [1]: 0 n (%)
Chills, Total [1]: 2 (50.0) n (%)
Constipation, Grade 1 [1]: 2 (50.0) n (%)
Constipation, Grade 2 [1]: 1 (25.0) n (%)
Constipation, Grade 3 [1]: 0 n (%)
Constipation, Grade 4 [1]: 0 n (%)
Constipation, Grade 5 [1]: 0 n (%)
Constipation, Total [1]: 3 (75.0) n (%)
Fatigue, Grade 1 [1]: 3 (75.0) n (%)
Fatigue, Grade 2 [1]: 1 (25.0) n (%)
Fatigue, Grade 3 [1]: 0 n (%)
Fatigue, Grade 4 [1]: 0 n (%)
Fatigue, Grade 5 [1]: 0 n (%)
Fatigue, Total [1]: 4 (100.0) n (%)
Insomnia, Grade 1 [1]: 1 (25.0) n (%)
Insomnia, Grade 2 [1]: 1 (25.0) n (%)
Insomnia, Grade 3 [1]: 0 n (%)
Insomnia, Grade 4 [1]: 0 n (%)
Insomnia, Grade 5 [1]: 0 n (%)
Insomnia, Total [1]: 2 (50.0) n (%)
Leukopenia, Grade 1 [1]: 0 n (%)
Leukopenia, Grade 2 [1]: 0 n (%)
Leukopenia, Grade 3 [1]: 3 (75.0) n (%)
Leukopenia, Grade 4 [1]: 0 n (%)
Leukopenia, Grade 5 [1]: 0 n (%)
Leukopenia, Total [1]: 3 (75.0) n (%)
Malaise, Grade 1 [1]: 2 (50.0) n (%)
Malaise, Grade 2 [1]: 0 n (%)
Malaise, Grade 3 [1]: 0 n (%)
Malaise, Grade 4 [1]: 0 n (%)
Malaise, Grade 5 [1]: 0 n (%)
Malaise, Total [1]: 2 (50.0) n (%)
Nausea, Grade 1 [1]: 3 (75.0) n (%)
Nausea, Grade 2 [1]: 0 n (%)
Nausea, Grade 3 [1]: 1 (25.0) n (%)
Nausea, Grade 4 [1]: 0 n (%)
Nausea, Grade 5 [1]: 0 n (%)
Nausea, Total [1]: 4 (100.0) n (%)
Neutropenia, Grade 1 [1]: 0 n (%)
Neutropenia, Grade 2 [1]: 0 n (%)
Neutropenia, Grade 3 [1]: 3 (75.0) n (%)
Neutropenia, Grade 4 [1]: 0 n (%)
Neutropenia, Grade 5 [1]: 0 n (%)
Neutropenia, Total [1]: 3 (75.0) n (%)
Pain in extremity, Grade 1 [1]: 1 (25.0) n (%)
Pain in extremity, Grade 2 [1]: 1 (25.0) n (%)
Pain in extremity, Grade 3 [1]: 0 n (%)
Pain in extremity, Grade 4 [1]: 0 n (%)
Pain in extremity, Grade 5 [1]: 0 n (%)
Pain in extremity, Total [1]: 2 (50.0) n (%)
Pyrexia, Grade 1 [1]: 1 (25.0) n (%)
Pyrexia, Grade 2 [1]: 1 (25.0) n (%)
Pyrexia, Grade 3 [1]: 0 n (%)
Pyrexia, Grade 4 [1]: 0 n (%)
Pyrexia, Grade 5 [1]: 0 n (%)
Pyrexia, Total [1]: 2 (50.0) n (%)
Rash, Grade 1 [1]: 2 (50.0) n (%)
Rash, Grade 2 [1]: 1 (25.0) n (%)
Rash, Grade 3 [1]: 0 n (%)
Rash, Grade 4 [1]: 0 n (%)
Rash, Grade 5 [1]: 0 n (%)
Rash, Total [1]: 3 (75.0) n (%)
Thrombocytopenia, Grade 1 [1]: 1 (25.0) n (%)
Thrombocytopenia, Grade 2 [1]: 1 (25.0) n (%)
Thrombocytopenia, Grade 3 [1]: 0 n (%)
Thrombocytopenia, Grade 4 [1]: 0 n (%)
Thrombocytopenia, Grade 5 [1]: 0 n (%)
Thrombocytopenia, Total [1]: 2 (50.0) n (%)
Vomiting, Grade 1 [1]: 2 (50.0) n (%)
Vomiting, Grade 2 [1]: 1 (25.0) n (%)
Vomiting, Grade 3 [1]: 0 n (%)
Vomiting, Grade 4 [1]: 0 n (%)
Vomiting, Grade 5 [1]: 0 n (%)
Vomiting, Total [1]: 3 (75.0) n (%)
Any SAE, Grade 1 [2]: 0 n (%)
Any SAE, Grade 2 [2]: 1 (25.0) n (%)
Any SAE, Grade 3 [2]: 1 (25.0) n (%)
Any SAE, Grade 4 [2]: 0 n (%)
Any SAE, Grade 5 [2]: 0 n (%)
Any SAE, Total [2]: 2 (50.0) n (%)
Cognitive disorder, Grade 1 [2]: 0 n (%)
Cognitive disorder, Grade 2 [2]: 0 n (%)
Cognitive disorder, Grade 3 [2]: 1 (25.0) n (%)
Cognitive disorder, Grade 4 [2]: 0 n (%)
Cognitive disorder, Grade 5 [2]: 0 n (%)
Cognitive disorder, Total [2]: 1 (25.0) n (%)
Rash, Grade 1 [2]: 0 n (%)
Rash, Grade 2 [2]: 1 (25.0) n (%)
Rash, Grade 3 [2]: 0 n (%)
Rash, Grade 4 [2]: 0 n (%)
Rash, Grade 5 [2]: 0 n (%)
Rash, Total [2]: 1 (25.0) n (%)
Patients who experienced SAEs (14 of the 21 treated patients): 66.7%
Grade 4 TEAE: decreased neutrophil count, patients [3]: 5.9%
Grade 4 TEAE: decreased white blood cell count, patients [3]: 5.9%
PF-04136309-related TEAE: rash, patients (500-mg BID group (n = 17), n = 6): 35.3%
PF-04136309-related TEAE: rash, patients (750-mg BID group (n = 4), n = 3): 75.0%
DLT events (750-mg BID group, one of four patients, cycle 1 day 7, resolved same day): grade 3 cognitive disorder
ALT increase, grade ≥3 [4]: 4 (19.0) n (%)
AST increase, grade ≥3 [4]: 4 (19.0) n (%)
Anemia, grade ≥3 [4]: 4 (19.0) n (%)
Fatigue, grade ≥3 [4]: 4 (19.0) n (%)
Leukopenia, grade ≥3 [4]: 5 (23.8) n (%)
Lymphopenia, grade ≥3 [4]: 5 (23.8) n (%)
Neutropenia, grade ≥3 [4]: 5 (23.8) n (%)
DLT (Total n = 21, first cycle, 5 DLTs in four patients): 4 (19.0)^c n (%)
Deaths (all in 500-mg BID group, 10 of 11 due to disease under study, one due to grade 5 pneumonia): Eleven
Changes in laboratory tests consistent with a relationship to study drug (all treated patients): no clinically significant changes
Changes in vital signs data consistent with a relationship to study drug (all treated patients): no clinically significant changes
Recommended phase II dose (RP2D) (in combination with nab-paclitaxel/gemcitabine): 500 mg BID
Late-onset DLT (in vivo): Grade 3 pneumonitis
Incidence of pulmonary toxicity (n = 21, combination with nab-paclitaxel/gemcitabine): 24%
Patients who experienced treatment-related SAEs (seven of 21, attributed to at least one of PF-04136309, nab-paclitaxel, gemcitabine): 33.3%
